In brackets after ≈: the same amount, converted by molar mass.
Legend:
Pasteurella multocida = assay: minimum inhibitory concentration (MIC)
Protocol: (§1)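 Broth microdilution MIC (Sensititre BOPO7F bovine plate, CLSI methods) of 19 antimicrobials against field isolates of P. multocida, M. haemolytica, H. somni (deep nasopharyngeal swabs) and E. coli, Enterococcus spp. (rectal swabs) from weaned dairy heifers. Incubation 16-24 h at 35 C. MIC is the lowest concentration preventing visible growth. Values with <= or > lie at the tested range limits. Trimethoprim-sulfamethoxazole is given as the trimethoprim component of a 1:19 mixture.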

Enterococcus spp. = assay: minimum inhibitory concentration (MIC)
Protocol: as §1

CCN1CCN(c2cc3c(cc2F)c(=O)c(C(=O)O)cn3C2CC2)CC1 [Enrofloxacin]
minimum inhibitory concentration [µg/mL]
Settings | Enterococcus spp. | Pasteurella multocida
isolate (source animal id): 2 | 0.25 (≈ 0.696 µM) | –
isolate (source animal id): 10 | – | 1 (≈ 2.78 µM)
isolate (source animal id): 11 | – | 1 (≈ 2.78 µM)
isolate (source animal id): 12 | – | 1 (≈ 2.78 µM)
isolate (source animal id): 19 | – | 1 (≈ 2.78 µM)
isolate (source animal id): 23 | – | 1 (≈ 2.78 µM)
isolate (source animal id): 26 | – | 2 (≈ 5.56 µM)
isolate (source animal id): 35 | > 2 | –
isolate (source animal id): 42 | 0.5 (≈ 1.39 µM) | –
isolate (source animal id): 44 | 0.5 (≈ 1.39 µM) | –
isolate (source animal id): 79 | 1 (≈ 2.78 µM) | –
isolate (source animal id): 88 | 0.25 (≈ 0.696 µM) | –
isolate (source animal id): 91 | 0.25 (≈ 0.696 µM) | –
isolate (source animal id): 92 | 1 (≈ 2.78 µM) | –
isolate (source animal id): 98 | – | 2 (≈ 5.56 µM)
isolate (source animal id): 104 | – | 0.5 (≈ 1.39 µM)
isolate (source animal id): 111 | 0.25 (≈ 0.696 µM) | –
isolate (source animal id): 115 | – | ≤ 0.12
isolate (source animal id): 117 | – | > 2
isolate (source animal id): 118 | – | 2 (≈ 5.56 µM)
isolate (source animal id): 121 | – | ≤ 0.12
isolate (source animal id): 122 | 1 (≈ 2.78 µM) | –
isolate (source animal id): 123 | 0.5 (≈ 1.39 µM) | –
isolate (source animal id): 124 | – | 1 (≈ 2.78 µM)
isolate (source animal id): 125 | – | 1 (≈ 2.78 µM)
isolate (source animal id): 128 | – | ≤ 0.12
isolate (source animal id): 131 | – | > 2
isolate (source animal id): 133 | 1 (≈ 2.78 µM) | –
isolate (source animal id): 135 | – | > 2
isolate (source animal id): 136 | – | ≤ 0.12
isolate (source animal id): 140 | – | 1 (≈ 2.78 µM)
isolate (source animal id): 144 | – | 1 (≈ 2.78 µM)
isolate (source animal id): 146 | – | 1 (≈ 2.78 µM)
isolate (source animal id): 150 | – | ≤ 0.12
isolate (source animal id): 151 | – | ≤ 0.12
isolate (source animal id): 153 | – | 1 (≈ 2.78 µM)
isolate (source animal id): 155 | – | 0.5 (≈ 1.39 µM)
isolate (source animal id): 157 | – | 2 (≈ 5.56 µM)
isolate (source animal id): 158 | 0.5 (≈ 1.39 µM) | –
isolate (source animal id): 160 | – | ≤ 0.12
isolate (source animal id): 164 | – | ≤ 0.12
isolate (source animal id): 165 | – | ≤ 0.12
isolate (source animal id): 167 | – | ≤ 0.12
isolate (source animal id): 168 | 0.5 (≈ 1.39 µM) | 2 (≈ 5.56 µM)
isolate (source animal id): 169 | 0.5 (≈ 1.39 µM) | ≤ 0.12
isolate (source animal id): 170 | – | ≤ 0.12
isolate (source animal id): 171 | 0.5 (≈ 1.39 µM) | ≤ 0.12
isolate (source animal id): 172 | – | ≤ 0.12
isolate (source animal id): 173 | – | 2 (≈ 5.56 µM)
isolate (source animal id): 174 | – | ≤ 0.12
isolate (source animal id): 175 | 1 (≈ 2.78 µM) | ≤ 0.12
isolate (source animal id): 176 | – | ≤ 0.12
isolate (source animal id): 177 | 2 (≈ 5.56 µM) | ≤ 0.12
isolate (source animal id): 178 | – | ≤ 0.12
isolate (source animal id): 179 | – | ≤ 0.12
isolate (source animal id): 181 | 0.5 (≈ 1.39 µM) | –
isolate (source animal id): 182 | 0.5 (≈ 1.39 µM) | ≤ 0.12
isolate (source animal id): 183 | 0.5 (≈ 1.39 µM) | –
isolate (source animal id): 187 | 0.5 (≈ 1.39 µM) | –
isolate (source animal id): 190 | 0.5 (≈ 1.39 µM) | –
isolate (source animal id): 192 | – | ≤ 0.12
isolate (source animal id): 193 | – | ≤ 0.12
isolate (source animal id): 194 | 0.5 (≈ 1.39 µM) | –
isolate (source animal id): 195 | 0.5 (≈ 1.39 µM) | ≤ 0.12
isolate (source animal id): 196 | – | ≤ 0.12
isolate (source animal id): 197 | 0.5 (≈ 1.39 µM) | ≤ 0.12
isolate (source animal id): 198 | – | 2 (≈ 5.56 µM)
isolate (source animal id): 199 | – | ≤ 0.12
isolate (source animal id): 200 | – | ≤ 0.12
isolate (source animal id): 201 | – | ≤ 0.12
isolate (source animal id): 203 | – | ≤ 0.12
isolate (source animal id): 204 | – | ≤ 0.12
isolate (source animal id): 205 | – | 2 (≈ 5.56 µM)
isolate (source animal id): 206 | – | ≤ 0.12
isolate (source animal id): 207 | – | ≤ 0.12
isolate (source animal id): 208 | – | ≤ 0.12
isolate (source animal id): 209 | – | ≤ 0.12
isolate (source animal id): 210 | – | 2 (≈ 5.56 µM)
isolate (source animal id): 211 | 0.5 (≈ 1.39 µM) | –
isolate (source animal id): 213 | – | ≤ 0.12
isolate (source animal id): 214 | 1 (≈ 2.78 µM) | –
isolate (source animal id): 216 | – | ≤ 0.12
isolate (source animal id): 222 | 0.5 (≈ 1.39 µM) | –
isolate (source animal id): 223 | 0.25 (≈ 0.696 µM) | > 2
isolate (source animal id): 227 | – | ≤ 0.12
isolate (source animal id): 228 | 0.5 (≈ 1.39 µM) | –
isolate (source animal id): 229 | – | 2 (≈ 5.56 µM)
isolate (source animal id): 230 | 0.5 (≈ 1.39 µM) | –
isolate (source animal id): 233 | – | 2 (≈ 5.56 µM)
isolate (source animal id): 234 | – | 2 (≈ 5.56 µM)
isolate (source animal id): 235 | 0.5 (≈ 1.39 µM) | –
isolate (source animal id): 236 | 2 (≈ 5.56 µM) | –
isolate (source animal id): 237 | – | > 2
isolate (source animal id): 239 | 2 (≈ 5.56 µM) | –
isolate (source animal id): 241 | 0.5 (≈ 1.39 µM) | > 2
isolate (source animal id): 244 | 0.5 (≈ 1.39 µM) | –
isolate (source animal id): 245 | – | > 2
isolate (source animal id): 246 | 0.5 (≈ 1.39 µM) | –
isolate (source animal id): 247 | 0.5 (≈ 1.39 µM) | 0.5 (≈ 1.39 µM)
isolate (source animal id): 250 | 0.25 (≈ 0.696 µM) | 1 (≈ 2.78 µM)
isolate (source animal id): 252 | > 2 | –
isolate (source animal id): 254 | – | 2 (≈ 5.56 µM)
isolate (source animal id): 255 | – | 2 (≈ 5.56 µM)
isolate (source animal id): 258 | – | ≤ 0.12
isolate (source animal id): 261 | – | 2 (≈ 5.56 µM)
isolate (source animal id): 262 | – | 1 (≈ 2.78 µM)
isolate (source animal id): 268 | 0.25 (≈ 0.696 µM) | –
isolate (source animal id): 269 | – | ≤ 0.12
isolate (source animal id): 270 | – | 2 (≈ 5.56 µM)
isolate (source animal id): 274 | – | > 2
isolate (source animal id): 275 | – | 2 (≈ 5.56 µM)
isolate (source animal id): 276 | – | > 2
isolate (source animal id): 277 | – | ≤ 0.12
isolate (source animal id): 278 | – | 2 (≈ 5.56 µM)
isolate (source animal id): 279 | – | 0.5 (≈ 1.39 µM)
isolate (source animal id): 280 | – | 0.5 (≈ 1.39 µM)
isolate (source animal id): 282 | 1 (≈ 2.78 µM) | –
isolate (source animal id): 284 | – | 2 (≈ 5.56 µM)
isolate (source animal id): 285 | 1 (≈ 2.78 µM) | 1 (≈ 2.78 µM)
isolate (source animal id): 287 | – | 2 (≈ 5.56 µM)
isolate (source animal id): 289 | 0.5 (≈ 1.39 µM) | –
isolate (source animal id): 290 | 0.5 (≈ 1.39 µM) | ≤ 0.12
isolate (source animal id): 294 | – | ≤ 0.12
isolate (source animal id): 295 | – | ≤ 0.12
isolate (source animal id): 296 | 0.5 (≈ 1.39 µM) | 1 (≈ 2.78 µM)
isolate (source animal id): 298 | 0.5 (≈ 1.39 µM) | –
isolate (source animal id): 301 | 0.5 (≈ 1.39 µM) | –
isolate (source animal id): 307 | – | ≤ 0.12
isolate (source animal id): 310 | 1 (≈ 2.78 µM) | ≤ 0.12
isolate (source animal id): 311 | – | ≤ 0.12
isolate (source animal id): 312 | – | 1 (≈ 2.78 µM)
isolate (source animal id): 313 | – | 1 (≈ 2.78 µM)
isolate (source animal id): 315 | – | 1 (≈ 2.78 µM)
isolate (source animal id): 316 | – | 1 (≈ 2.78 µM)
isolate (source animal id): 320 | 0.5 (≈ 1.39 µM) | –
isolate (source animal id): 331 | 0.5 (≈ 1.39 µM) | –
isolate (source animal id): 333 | 0.5 (≈ 1.39 µM) | –
isolate (source animal id): 341 | > 2 | –
